Measurements published in patent publication US5866587A, “Metalloprotease inhibitors” (Adir Et Compagnie, priority 1996, dated 1999).
Structures can show the parent of a compound that is named as a salt.

Key:
guinea pig cartilage [1] = experiment: Degradation of the cartilaginous matrix induced by IL-1β: degradation of proteoglycans (35SO4 glycosaminoglycan release); assay type: cell-based; details: IL-1β (10 mg/ml), 3 days; for inhibition at 30 µM: Cavia porcellus, 72 h, 3 × 10^-5 M, cartilage labeled with 35SO4, read-out: proteoglycans % protection at 3 × 10^-5M
Description: (§1) The compounds of the invention were studied in a model of destruction of the cartilaginous matrix induced by IL-1β. The trials carried out on guinea pig cartilage relate:
on the other hand, to the degradation of proteoglycans: radioisotopic measurement of the glycosaminoglycan fraction released by the tissue during the 3 days of contact with IL-1β (10 mg/mil), the cartilage having been labeled beforehand with ^35 SO4.
(§2) The compounds of the invention were studied by addition to the culture medium for the 3 days of assay. […] By way of example, the activities exerted by some compounds of the invention are the following: […]

[2] = system: murine Lewis carcinoma cells (LLC); experiment: Invasion in vitro, Transwell filter coated with artificial extracellular matrix; assay type: cell-based; details: Mus musculus, 24 h, medium with serum, read-out: inhibition of cellular invasion
Description: The tests of invasion are carried out according to the following procedure: murine Lewis carcinoma cells (LLC) are deposited on the top face of a Transwell filter coated with an artificial extracellular matrix and are cultured in medium with serum for 24 h. The cells are then exposed to the vital stain 3-[4,5-dimethylthiazol-2-yl]-2,5-diphenyltetrazolium bromide and they are removed from the top face of the filter. The formazan crystals present under the filter are solubilized in a concentrated mixture of sodium dodecyl sulfate and dimethylformamide. The absorption at 540 nm of the corresponding colored mixture is then used to indirectly quantify cellular invasion.

guinea pig cartilage [3] = experiment: Degradation of the cartilaginous matrix induced by IL-1β: degradation of collagen (OH-proline release); assay type: cell-based; details: IL-1β (10 mg/ml) and plasminogen (30 μg/ml), 3 days; for inhibition at 1 µM: Cavia porcellus, 72 h, 10^-6 M, read-out: collagen % protection at 10^-6 M
Description: as §1
on the one hand, to the degradation of collagen: colorimetric assay according to the Grant technique (Grant R. A. Estimation of OH-proline by the autoanalyser, J. Clin. Path. 1964, 17, 685) of the OH-proline fraction released by the tissue brought into contact, for 3 days, with IL-1β ([…]) and of plasminogen (30 μg/ml),
as §2

[4] = system: sections of thoracic aorta from Fischer 344 rats; experiment: Angiogenesis in vitro, formation of pseudovessels in collagen gel; assay type: cell-based; details: Rattus norvegicus, 120 h; at 100 nM, five days of culture in serum-free medium; read-out: inhibition of formation of pseudovessels (vascular density)
From the text: Sections of thoracic aorta from 8- to 12-week old male Fischer 344 rats are immersed in a collagen type I gel according to the Nicosia and Ottinetti method (1990). After five days of culture in serum-free medium, the preparations are examined under a microscope and the formation of pseudovessels is quantified in terms of vascular density after digitization and image analysis.

ovarian cancers = details: Becket et al., DDT 1996; cited from earlier work

**Q.** For `COc1ccc(S(=O)(=O)N2Cc3ccsc3C[C@@H]2C(=O)NO)cc1` [Example 1, (6R)-5-(4-Methoxybenzenesulfonyl)-4,5,6,7-tetrahydrothieno[3,2-c]pyridine-6-(N-hydroxy)carboxamide], which inhibition at 30 µM (guinea pig cartilage [1]) is on record?
**A.** 45%

**Q.** And the inhibition at 1 µM [2]?
**A.** 45%

**Q.** And the inhibition at 1 µM (guinea pig cartilage [3])?
**A.** 98%

**Q.** What about the inhibition at 0.1 µM [4] of the same compound?
**A.** 87%

**Q.** Which results are given for `COc1ccc(S(=O)(=O)N2Cc3occc3C[C@@H]2C(=O)NO)cc1` [Example 28, (5R)-6-(4-Methoxybenzenesulfonyl)-4,5,6,7-tetrahydrofuro[2,3-c]pyridine-5-(N-hydroxy)carboxamide]?
**A.** inhibition at 30 µM (guinea pig cartilage [1]): 34%; inhibition at 1 µM [2]: 44%; inhibition at 1 µM (guinea pig cartilage [3]): 79%; inhibition at 0.1 µM [4]: 85%

**Q.** Which “proteoglycans % protection at 3 × 10^-5M” value (guinea pig cartilage [1]; cartilage labeled with 35SO4, 30 µM) does the source give for `CCCCCCCC1c2[nH]c3ccccc3c2C[C@H](C(=O)NO)N1S(=O)(=O)c1ccc(OC)cc1` (single isomer, unassigned) [Example 7] here?
**A.** 100%

**Q.** And the “collagen % protection at 10^-6 M” value (guinea pig cartilage [3]; 1 µM)?
**A.** 47%

**Q.** For `COc1ccc(S(=O)(=O)N2Cc3nc[nH]c3C[C@@H]2C(=O)NO)cc1` [Example 23, (6R)-5-(4-Methoxybenzenesulfonyl)-4,5,6,7-tetrahydro-imidazo[4,5-c]pyridine-6-(N-hydroxy)carboxamide Hydrochloride], which inhibition at 30 µM (guinea pig cartilage [1]) is on record?
**A.** 24%

**Q.** And the inhibition at 1 µM (guinea pig cartilage [3])?
**A.** 88%

**Q.** For `CNC(=O)[C@H](Cc1ccccc1)NC(=O)[C@H](CC(C)C)[C@H](CSc1cccs1)C(=O)NO` [BB94], which “antitumor activity in clinical trials” value (ovarian cancers) is on record?
**A.** proved active on ovarian cancers

**Q.** Which results are given for `COc1ccc(S(=O)(=O)N2Cc3sccc3C[C@@H]2C(=O)NO)cc1` [Example 15, (5R)-6-(4-Methoxybenzenesulfonyl)-4,5,6,7-tetrahydro-thieno[2,3-c]pyridine-5-(N-hydroxy)carboxamide]?
**A.** inhibition at 30 µM (guinea pig cartilage [1]): 60%; inhibition at 1 µM (guinea pig cartilage [3]): 98%
